Values of other authors as cited in patent publication US20260216122A1, “PHARMACEUTICAL COMPOSITION COMPRISING ENAVOGLIFLOZIN AND METFORMIN” (DAEWOONG PHARMACEUTICAL CO., LTD., priority 2022, published 2026).
Like-named read-outs stand apart in the source and are kept apart here.

Structure (SMILES) | Tmax (metformin, administered after a meal) | Tmax (metformin, administered before a meal) | Tmax (enavogliflozin)
CN(C)C(=N)N=C(N)N [Metformin] | approximately 6 hours | approximately 4 hours | 
OC[C@H]1O[C@@H](c2cc(Cc3ccc(C4CC4)cc3)c(Cl)c3c2CCO3)[C@H](O)[C@@H](O)[C@@H]1O [enavogliflozin, (2S,3R,4R,5S,6R)-2-(7-chloro-6-(4-cyclopropylbenzyl)-2,3-dihydrobenzofuran-4-yl)-6-(hydroxymethyl)tetrahydro-2H-pyran-3,4,5-triol] |  |  | approximately 1 hour
